Six compounds from PMC11079024, “Identification of a family of species-selective complex I inhibitors as potential anthelmintics” (Nature Communications, 2024) can be followed below.

SMILES strings stand for the structures. Several values for one entry are separate records, joined by “and”; a condition that tells them apart may be missing. Equal entries are not always repeated. Where two headings read alike, the source gives them in different places.

For series [1], the system named is C. elegans. Nature of the series: C. elegans chemical screens of RIKEN NPD libraries at 50 μM (hit identification in KCN survival and development/viability assays). In kind it is cell-based, Caenorhabditis elegans. As to conditions: screened at 50 μM in triplicate; […]; KCN = KCN survival assay, Dev. & Viability = development/viability assay.
Series [2] concerns anthelmintic/nematicide-resistant C. elegans mutant strains. The series can be described thus: microbe, parasite or virus in culture. As to conditions: for LC50: Caenorhabditis elegans. The source says: In addition to the Caenorhabditis elegans wild-type N2 strain, this work included the following C. elegans strains: CB1003 (kynu-1(e1003) X); anthelmintic-resistant strains—CB3474 (ben-1(e1880) III), CB193 (unc-29(e193) I), HY496 (bre-1(ye4) IV), RB2119 (acr-23(ok2804) V), JD608 (avr-14(ad1302) I; avr-15(ad1051) V; glc-1 (pk54) V), NM1968 (slo-1(js379) V), RP2635 (mev-1(tr355) III); benzimidazole-resistant CRISPR strains—ECA882 (ben-1(ean64) III), ECA917 (ben-1(ean98) III), ECA1075 (ben-1(ean143) III), ECA1080 (ben-1(ean148) III). This work also featured several additional free-living nematode strains: C. briggsae strain AF16, P. pacificus strain PS312, and P. hermaphrodita strain B178. The four CRISPR-generated benzimidazole-resistant C. elegans mutants were generously provided by Prof. Erik Andersen (Johns Hopkins University); PS312 and B178 were generously provided by Prof. Peter Roy (University of Toronto); all other strains were obtained from the Caenorhabditis Genetics Center (CGC, University of Minnesota). All strains were cultured and propagated at 20 °C on NGM (nematode growth medium) agar plates seeded with E. coli OP50 (Stiernagle, 2006)[56].
Liquid development and viability assays were adapted from a previously established chemical screening protocol (Burns et al.)[24]. In brief, a saturated culture of E. coli HB101 was concentrated 2-fold in liquid NGM and 40 μL of this suspension was distributed to each well of a 96-well flat-bottom culture plate. 0.5 μL chemical solution (or DMSO alone) was added to each well (1% DMSO v/v) using either a multi-channel pipette or a pinning tool (V&P Scientific). L1 worms synchronized from an embryo preparation performed the day prior were diluted to a concentration of ~2 worms/μL in M9 buffer; 10 μL worm suspension was then added to each well. Culture plates were sealed with parafilm and placed in a plastic container lined with wet paper towels to prevent evaporation. Containers were then incubated for 6 days at 20 °C with shaking at 165 rpm. Following incubation, 300 μL M9 was added to each well to decrease the turbidity of the HB101-NGM suspension. Single images of each microplate well were then taken on a Nikon Ti Eclipse inverted microscope (Nikon NIS Elements AR). Images were processed using Python scripts to isolate worm-associated pixels from background. Scores of worm development and viability were determined as the sum of worm-associated pixels in each well. Development/viability scores for each well were divided by the development /viability scores for the corresponding DMSO controls, resulting in a relative viability value for each chemical. At least three biological replicates were performed for each dose-response experiment; relative viability values were averaged across replicates.
Supplementary Table 2. Sensitivity of anthelmintic/nematicide-resistant strains to Class A, B, and C
benzimidazole complex I inhibitors.
LC50s were estimated from fitted dose-
response curves; all dose response data are the mean of at least three biological replicates.
Supplementary Table 2. Davie et al.

Series [3] deals with HEK293 cells.
Setting [4] is: dose 0.4 µM, individual replicate (Rep).
The mark [5] stands for this setting: dose 0.8 µM, individual replicate (Rep).
Setting [6] is: dose 6.3 µM, individual replicate (Rep).

Take `COc1cc2c(cc1OC)C(c1ccc(-c3ccc(Cl)c(Cl)c3)o1)=NCC2` [NPD3577]: the “Hit Type” value in series [1] is listed as “KCN”.
On the same count and under the same terms, in the case of `COc1cc2c(cc1OC)C(C(C)c1ccc(CC(C)C)cc1)=NCC2` (stereo not shown) [NPD10504] it was “KCN”; in that of `COc1cc2c(cc1OC)C(/C=C/c1ccc(N(C)C)cc1)=NCC2` [NPD6303], “KCN”.
The LC50 is the concentration that kills 50% of the test population. As to `C=C(C)[C@H]1Cc2c(ccc3c2O[C@@H]2COc4cc(OC)c(OC)cc4[C@@H]2C3=O)O1` [Rotenone, reference compound], the LC50 worked out at 2.1 µM in series [2] (read-out: C. elegans Development & Viability LC50, acr-23(ok2804)); 1.4 µM in series [2] (read-out: C. elegans Development & Viability LC50, avr-14(ad1302), avr-15(ad1051), glc-1(pk54)); 3.4 µM in series [2] (read-out: C. elegans Development & Viability LC50, ben-1(e1880)); 3.5 µM in series [2] (read-out: C. elegans Development & Viability LC50, bre-1(ye4)); 3.2 µM in series [2] (read-out: C. elegans Development & Viability LC50, mev-1(tr355)); 1 µM in series [2] (read-out: C. elegans Development & Viability LC50, slo-1(js379)). Also, the median lethal concentration (LC50) in series [2] (read-out: C. elegans Development & Viability LC50, unc-29(e193)) came to 1.5 µM. Moreover, the HEK293 viability in series [3] (setting [4]) is 0.393 and 0.409 and 0.194; in series [3] (setting [5]), 0.340 and 0.322; in series [3] (dose 3.1 µM, individual replicate (Rep)) it was 0.488 and 0.455; in series [3] (setting [6]) it was 0.380 and 0.286; in series [3] (dose 12.5 µM, individual replicate (Rep)), 0.265; in series [3] (dose 25 µM, individual replicate (Rep)) it was 0.242 and 0.200. Also, in series [3] (dose 50 µM, individual replicate (Rep)), the HEK293 viability was 0.196 and 0.203.
In the case of `O=C(NCCc1ccc(Cl)cc1)c1ccccc1C(F)(F)F` [Wact-11], the HEK293 viability was 0.997 in series [3]; 0.929 in series [3] (dose 0.4 µM, Mean of replicates); 0.886 and 0.902 in series [3] (setting [4]); 0.971 in series [3] (dose 0.8 µM, Mean of replicates); 0.916 in series [3] (setting [5]); 0.986 in series [3] (dose 6.3 µM, Mean of replicates). For the same compound, in series [3] (setting [6]), the HEK293 viability is 0.982 and 0.975. In series [3] (read-out: HEK293 Cell Viability Assay LC50, 2 days exposure), the CC50 is over 50 µM.
With `c1ccc2[nH]c(-c3cscn3)nc2c1` [Thiabendazole], the “C. elegans L1 relative development & viability” value in series [2] (CB3474 G104D (ben-1), 1 µM, score 0-1 relative to DMSO, values >1 set to 1) is 1.000; in series [2] (CB3474 G104D (ben-1), 2 µM, score 0-1 relative to DMSO, values >1 set to 1), 1.000; in series [2] (CB3474 G104D (ben-1), 3.9 µM, score 0-1 relative to DMSO, values >1 set to 1), 1.000; in series [2] (CB3474 G104D (ben-1), 15.6 µM, score 0-1 relative to DMSO, values >1 set to 1) it was 1.000; in series [2] (CB3474 G104D (ben-1), 31.3 µM, score 0-1 relative to DMSO, values >1 set to 1), 1.000; in series [2] (CB3474 G104D (ben-1), 62.5 µM, score 0-1 relative to DMSO, values >1 set to 1), 1.000. Moreover, the “C. elegans L1 relative development & viability” value is 1.000 in series [2] (CB3474 G104D (ben-1), 125 µM, score 0-1 relative to DMSO, values >1 set to 1); 1.000 in series [2] (CB3474 G104D (ben-1), 250 µM, score 0-1 relative to DMSO, values >1 set to 1); 0.035 in series [2] (CB3474 G104D (ben-1), 500 µM, […]); 1.000 in series [2] (ECA917 F200Y (ben-1), 1 µM, score 0-1 relative to DMSO, values >1 set to 1); 1.000 in series [2] (ECA917 F200Y (ben-1), 2 µM, score 0-1 relative to DMSO, values >1 set to 1); 1.000 in series [2] (ECA917 F200Y (ben-1), 3.9 µM, score 0-1 relative to DMSO, values >1 set to 1). The “C. elegans L1 relative development & viability” value in series [2] (ECA917 F200Y (ben-1), 15.6 µM, score 0-1 relative to DMSO, values >1 set to 1) came to 1.000; in series [2] (ECA917 F200Y (ben-1), 31.3 µM, score 0-1 relative to DMSO, values >1 set to 1), 1.000; in series [2] (ECA917 F200Y (ben-1), 62.5 µM, score 0-1 relative to DMSO, values >1 set to 1), 1.000; in series [2] (ECA917 F200Y (ben-1), 125 µM, score 0-1 relative to DMSO, values >1 set to 1), 1.000; in series [2] (ECA917 F200Y (ben-1), 250 µM, score 0-1 relative to DMSO, values >1 set to 1), 1.000; in series [2] (ECA917 F200Y (ben-1), 500 µM, […]), 0.056. Moreover, the “C. elegans L1 relative development & viability” value is 1.000 in series [2] (ECA1075 F167Y (ben-1), 1 µM, score 0-1 relative to DMSO, values >1 set to 1); 1.000 in series [2] (ECA1075 F167Y (ben-1), 2 µM, score 0-1 relative to DMSO, values >1 set to 1); 1.000 in series [2] (ECA1075 F167Y (ben-1), 3.9 µM, score 0-1 relative to DMSO, values >1 set to 1); 1.000 in series [2] (ECA1075 F167Y (ben-1), 15.6 µM, score 0-1 relative to DMSO, values >1 set to 1); 1.000 in series [2] (ECA1075 F167Y (ben-1), 31.3 µM, score 0-1 relative to DMSO, values >1 set to 1); 1.000 in series [2] (ECA1075 F167Y (ben-1), 62.5 µM, score 0-1 relative to DMSO, values >1 set to 1). In addition, the “C. elegans L1 relative development & viability” value in series [2] (ECA1075 F167Y (ben-1), 125 µM, score 0-1 relative to DMSO, values >1 set to 1) worked out at 1.000; in series [2] (ECA1075 F167Y (ben-1), 250 µM, score 0-1 relative to DMSO, values >1 set to 1), 1.000; in series [2] (ECA1075 F167Y (ben-1), 500 µM, […]), 0.028; in series [2] (ECA1080 E198A (ben-1), 1 µM, score 0-1 relative to DMSO, values >1 set to 1), 1.000; in series [2] (ECA1080 E198A (ben-1), 2 µM, score 0-1 relative to DMSO, values >1 set to 1) it was 1.000; in series [2] (ECA1080 E198A (ben-1), 3.9 µM, score 0-1 relative to DMSO, values >1 set to 1), 1.000. Moreover, the “C. elegans L1 relative development & viability” value in series [2] (ECA1080 E198A (ben-1), 15.6 µM, score 0-1 relative to DMSO, values >1 set to 1) is reported as 1.000; in series [2] (ECA1080 E198A (ben-1), 31.3 µM, score 0-1 relative to DMSO, values >1 set to 1), 1.000; in series [2] (ECA1080 E198A (ben-1), 62.5 µM, score 0-1 relative to DMSO, values >1 set to 1), 1.000; in series [2] (ECA1080 E198A (ben-1), 125 µM, score 0-1 relative to DMSO, values >1 set to 1), 1.000; in series [2] (ECA1080 E198A (ben-1), 250 µM, score 0-1 relative to DMSO, values >1 set to 1), 1.000; in series [2] (ECA1080 E198A (ben-1), 500 µM, […]) it was 0.041.
